How the values were obtained:
Japanese bulrush [1] = assay: Test Example 1: herbicidal activity, application before weed generation under submerged conditions (Table 16, symbol B); assay type: in vivo, Japanese bulrush (Schoenoplectus juncoides); details: amount of applied herbicide 320 g/ha
Procedure, shortened: (§1)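 Submerged Wagner pots (alluvial soil, 4 cm water) sown with weed seeds and planted with 2.5-leaf rice seedlings; emulsifiable concentrate diluted in water applied to water surface on sowing day. Held in greenhouse at 25-30 °C; injury scored 0-5 by herbicidal rate after three weeks.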

oval-leafed pondweed = assay: Test Example 1: herbicidal activity, application before weed generation under submerged conditions (Table 16, symbol C); assay type: in vivo, oval-leafed pondweed (Monochoria vaginalis); details: amount of applied herbicide 320 g/ha
Procedure, shortened: as §1

late watergrass = assay: Test Example 2: herbicidal activity, application during weed generation under submerged conditions (Table 17, symbol A); assay type: in vivo, late watergrass (Echinochloa oryzicola); details: AAH 320 g/ha; application during weed generation, submerged conditions
Procedure, shortened: (§2)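 Steps: fill Wagner pots with alluvial soil; add water to give 4 cm depth; sow the species mixed; grow under glass at 25–30° C.; at 1–2 leaves apply water-diluted emulsion formulation to the water surface at a fixed herbicide amount; score after 3 weeks.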

Japanese bulrush [2] = assay: Test Example 2: herbicidal activity, application during weed generation under submerged conditions (Table 17, symbol B); assay type: in vivo, Japanese bulrush (Schoenoplectus juncoides); details: AAH 320 g/ha; application during weed generation, submerged conditions
Procedure, shortened: as §2

rice flat sedge = assay: Test Example 3: herbicidal effect by foliage application, Wagner pot (Table 18, symbol E); assay type: in vivo, rice flat sedge (Cyperus iria); details: 320 g/ha
Procedure, shortened: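 Plants were sown in alluvial soil held under 0.1–0.5 cm standing water and grown 14 days in a greenhouse at 25–30 °C. An emulsifiable formulation, water-diluted to the set dose, was then sprayed onto the foliage, and effects were scored three weeks later using previously defined criteria.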

wild oat [3] = assay: Test Example 4: herbicidal effect by soil treatment (Table 19, symbol I); assay type: in vivo, wild oat (Avena fatua); details: amount of applied herbicide 320 g/ha
Procedure, shortened: (§3)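 Three weeks of greenhouse growth at 25° C. to 30° C. followed a uniform surface spray of water-diluted emulsion at a predetermined herbicide amount. Seeds had been sown beforehand under about 1.5 cm of sterilized diluvial soil. Grading followed criteria set out in an earlier test.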

Italian ryegrass [4] = assay: Test Example 4: herbicidal effect by soil treatment (Table 19, symbol K); assay type: in vivo, Italian ryegrass (Lolium multiflorum); details: amount of applied herbicide 320 g/ha
Procedure, shortened: as §3

velvetleaf [5] = assay: Test Example 4: herbicidal effect by soil treatment (Table 19, symbol M); assay type: in vivo, velvetleaf (Abutilon theophrasti); details: amount of applied herbicide 320 g/ha
Procedure, shortened: as §3

lambsquarters [6] = assay: Test Example 4: herbicidal effect by soil treatment (Table 19, symbol O); assay type: in vivo, lambsquarters (Chenopodium album); details: amount of applied herbicide 320 g/ha
Procedure, shortened: as §3

persian speedwell = assay: Test Example 4: herbicidal effect by soil treatment (Table 19, symbol R); assay type: in vivo, Persian speedwell (Veronica persica); details: amount of applied herbicide 320 g/ha
Procedure, shortened: as §3

barnyard grass = assay: Test Example 5: herbicidal effect by foliage application, plastic box (Table 20, symbol H); assay type: in vivo, barnyard grass (Echinochloa crus-galli); details: foliage application after 14-day growth, evaluated three weeks after application; for herbicidal effect on H: barnyard grass (evaluation grade 0-5): 320 g/ha
Procedure, shortened: (§4)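 Plants sown in sterilized diluvial soil and grown 14 days in a greenhouse at 25° C to 30° C, then sprayed on the foliage with the compound's emulsion diluted in water to a predetermined herbicide amount. Injury to weeds and crops scored three weeks after application on a visual rating scale.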

wild oat [7] = assay: Test Example 5: herbicidal effect by foliage application, plastic box (Table 20, symbol I); assay type: in vivo, wild oat (Avena fatua); details: foliage application after 14-day growth, evaluated three weeks after application; for herbicidal effect on I: wild oat (evaluation grade 0-5): 320 g/ha
Procedure, shortened: as §4

Italian ryegrass [8] = assay: Test Example 5: herbicidal effect by foliage application, plastic box (Table 20, symbol K); assay type: in vivo, Italian ryegrass (Lolium multiflorum); details: foliage application after 14-day growth, evaluated three weeks after application; for herbicidal effect on K: Italian ryegrass (evaluation grade 0-5): 320 g/ha
Procedure, shortened: as §4

windgrass = assay: Test Example 5: herbicidal effect by foliage application, plastic box (Table 20, symbol L); assay type: in vivo, windgrass (Apera spica-venti); details: foliage application after 14-day growth, evaluated three weeks after application; for herbicidal effect on L: windgrass (evaluation grade 0-5): 320 g/ha
Procedure, shortened: as §4

velvetleaf [9] = assay: Test Example 5: herbicidal effect by foliage application, plastic box (Table 20, symbol M); assay type: in vivo, velvetleaf (Abutilon theophrasti); details: foliage application after 14-day growth, evaluated three weeks after application; for herbicidal effect on M: velvetleaf (evaluation grade 0-5): 320 g/ha
Procedure, shortened: as §4

lambsquarters [10] = assay: Test Example 5: herbicidal effect by foliage application, plastic box (Table 20, symbol O); assay type: in vivo, lambsquarters (Chenopodium album); details: foliage application after 14-day growth, evaluated three weeks after application; for herbicidal effect on O: lambsquarters (evaluation grade 0-5): 320 g/ha
Procedure, shortened: as §4

chickweed = assay: Test Example 5: herbicidal effect by foliage application, plastic box (Table 20, symbol P); assay type: in vivo, common chickweed (Stellaria media); details: foliage application after 14-day growth, evaluated three weeks after application; for herbicidal effect on P: chickweed (evaluation grade 0-5): 320 g/ha
Procedure, shortened: as §4

[11] = amount of applied herbicide 320 g/ha

SMILES: CCCC(=O)Oc1c(C)nn(C)c(=O)c1-c1c(-c2ccc(C(F)(F)F)cc2)sc2c(F)cccc12 [4-045]
- Herbicidal effect, B: Japanese bulrush (Japanese bulrush [1]): 2 (Herbicidal rate of 20% or more and less than 40%)
- Herbicidal effect, C: oval-leafed pondweed (oval-leafed pondweed): 0 (Herbicidal rate of 5% or less (almost no effect))
- herbicidal effect rating, A: late watergrass (late watergrass): 3 (Herbicidal rate of 40% or more and less than 70%)
- herbicidal effect rating, B: Japanese bulrush (Japanese bulrush [2]): 0 (Herbicidal rate of 5% or less (almost no effect))
- herbicidal effect on rice flat sedge (E) (rice flat sedge): 5 (Herbicidal rate of 90% or more (almost completely withered))
- Herbicidal effect by soil treatment, I: wild oat (wild oat [3]): 0 (Herbicidal rate of 5% or less (almost no effect))
- Herbicidal effect by soil treatment, K: Italian ryegrass (Italian ryegrass [4]): 0 (Herbicidal rate of 5% or less (almost no effect))
- Herbicidal effect by soil treatment, M: velvetleaf (velvetleaf [5]): 0 (Herbicidal rate of 5% or less (almost no effect))
- Herbicidal effect by soil treatment, O: lambsquarters (lambsquarters [6]): 0 (Herbicidal rate of 5% or less (almost no effect))
- Herbicidal effect by soil treatment, R: persian speedwell (persian speedwell): 3 (Herbicidal rate of 40% or more and less than 70%)
- herbicidal effect on H: barnyard grass (evaluation grade 0-5) (barnyard grass): 2 (Herbicidal rate of 20% or more and less than 40%)
- herbicidal effect on I: wild oat (evaluation grade 0-5) (wild oat [7]): 0 (Herbicidal rate of 5% or less (almost no effect))
- herbicidal effect on K: Italian ryegrass (evaluation grade 0-5) (Italian ryegrass [8]): 5 (Herbicidal rate of 90% or more (almost completely withered))
- herbicidal effect on L: windgrass (evaluation grade 0-5) (windgrass): 4 (Herbicidal rate of 70% or more and less than 90%)
- herbicidal effect on M: velvetleaf (evaluation grade 0-5) (velvetleaf [9]): 4 (Herbicidal rate of 70% or more and less than 90%)
- herbicidal effect on O: lambsquarters (evaluation grade 0-5) (lambsquarters [10]): 3 (Herbicidal rate of 40% or more and less than 70%)
- herbicidal effect on P: chickweed (evaluation grade 0-5) (chickweed): 5 (Herbicidal rate of 90% or more (almost completely withered))

SMILES: CCCC(=O)Oc1c(C)nn(C)c(=O)c1-c1c(-c2ccc(C#N)cc2)sc2c(F)cccc12 [4-053]
- Herbicidal effect, B: Japanese bulrush (Japanese bulrush [1]): 3 (Herbicidal rate of 40% or more and less than 70%)
- Herbicidal effect, C: oval-leafed pondweed (oval-leafed pondweed): 2 (Herbicidal rate of 20% or more and less than 40%)
- herbicidal effect rating, A: late watergrass (late watergrass): 4 (Herbicidal rate of 70% or more and less than 90%)
- herbicidal effect rating, B: Japanese bulrush (Japanese bulrush [2]): 2 (Herbicidal rate of 20% or more and less than 40%)
- herbicidal effect on rice flat sedge (E) (rice flat sedge): 4 (Herbicidal rate of 70% or more and less than 90%)
- Herbicidal effect by soil treatment, I: wild oat (wild oat [3]): 0 (Herbicidal rate of 5% or less (almost no effect))
- Herbicidal effect by soil treatment, K: Italian ryegrass (Italian ryegrass [4]): 4 (Herbicidal rate of 70% or more and less than 90%)
- Herbicidal effect by soil treatment, M: velvetleaf (velvetleaf [5]): 2 (Herbicidal rate of 20% or more and less than 40%)
- Herbicidal effect by soil treatment, O: lambsquarters (lambsquarters [6]): 3 (Herbicidal rate of 40% or more and less than 70%)
- Herbicidal effect by soil treatment, R: persian speedwell (persian speedwell): 5 (Herbicidal rate of 90% or more (almost completely withered))
- herbicidal effect on H: barnyard grass (evaluation grade 0-5) (barnyard grass): 2 (Herbicidal rate of 20% or more and less than 40%)
- herbicidal effect on I: wild oat (evaluation grade 0-5) (wild oat [7]): 2 (Herbicidal rate of 20% or more and less than 40%)
- herbicidal effect on K: Italian ryegrass (evaluation grade 0-5) (Italian ryegrass [8]): 4 (Herbicidal rate of 70% or more and less than 90%)
- herbicidal effect on L: windgrass (evaluation grade 0-5) (windgrass): 4 (Herbicidal rate of 70% or more and less than 90%)
- herbicidal effect on M: velvetleaf (evaluation grade 0-5) (velvetleaf [9]): 5 (Herbicidal rate of 90% or more (almost completely withered))
- herbicidal effect on O: lambsquarters (evaluation grade 0-5) (lambsquarters [10]): 4 (Herbicidal rate of 70% or more and less than 90%)
- herbicidal effect on P: chickweed (evaluation grade 0-5) (chickweed): 5 (Herbicidal rate of 90% or more (almost completely withered))

SMILES: Cc1nn(C)c(=O)c(-c2c(-c3ccc(Cl)c(F)c3)sc3c(F)cccc23)c1O [4-054]
- Herbicidal effect, B: Japanese bulrush (Japanese bulrush [1]): 3 (Herbicidal rate of 40% or more and less than 70%)
- Herbicidal effect, C: oval-leafed pondweed (oval-leafed pondweed): 0 (Herbicidal rate of 5% or less (almost no effect))
- herbicidal effect rating, A: late watergrass (late watergrass): 2 (Herbicidal rate of 20% or more and less than 40%)
- herbicidal effect rating, B: Japanese bulrush (Japanese bulrush [2]): 2 (Herbicidal rate of 20% or more and less than 40%)
- herbicidal effect on rice flat sedge (E) (rice flat sedge): 0 (Herbicidal rate of 5% or less (almost no effect))
- Herbicidal effect by soil treatment, I: wild oat (wild oat [3]): 0 (Herbicidal rate of 5% or less (almost no effect))
- Herbicidal effect by soil treatment, K: Italian ryegrass (Italian ryegrass [4]): 0 (Herbicidal rate of 5% or less (almost no effect))
- Herbicidal effect by soil treatment, M: velvetleaf (velvetleaf [5]): 0 (Herbicidal rate of 5% or less (almost no effect))
- Herbicidal effect by soil treatment, O: lambsquarters (lambsquarters [6]): 1 (Herbicidal rate of 5% or more and less than 20%)
- Herbicidal effect by soil treatment, R: persian speedwell (persian speedwell): 4 (Herbicidal rate of 70% or more and less than 90%)
- herbicidal effect on H: barnyard grass (evaluation grade 0-5) (barnyard grass): 4 (Herbicidal rate of 70% or more and less than 90%)
- herbicidal effect on I: wild oat (evaluation grade 0-5) (wild oat [7]): 0 (Herbicidal rate of 5% or less (almost no effect))
- herbicidal effect on K: Italian ryegrass (evaluation grade 0-5) (Italian ryegrass [8]): 1 (Herbicidal rate of 5% or more and less than 20%)
- herbicidal effect on L: windgrass (evaluation grade 0-5) (windgrass): 0 (Herbicidal rate of 5% or less (almost no effect))
- herbicidal effect on M: velvetleaf (evaluation grade 0-5) (velvetleaf [9]): 5 (Herbicidal rate of 90% or more (almost completely withered))
- herbicidal effect on O: lambsquarters (evaluation grade 0-5) (lambsquarters [10]): 3 (Herbicidal rate of 40% or more and less than 70%)
- herbicidal effect on P: chickweed (evaluation grade 0-5) (chickweed): 5 (Herbicidal rate of 90% or more (almost completely withered))

SMILES: Cc1nn(C)c(=O)c(-c2c(-c3ccc(Cl)cc3)sc3c(C)cccc23)c1O [4-102]
- Herbicidal effect, B: Japanese bulrush (Japanese bulrush [1]): 0 (Herbicidal rate of 5% or less (almost no effect))
- Herbicidal effect, C: oval-leafed pondweed (oval-leafed pondweed): 0 (Herbicidal rate of 5% or less (almost no effect))
- herbicidal effect rating, A: late watergrass (late watergrass): 2 (Herbicidal rate of 20% or more and less than 40%)
- herbicidal effect rating, B: Japanese bulrush (Japanese bulrush [2]): 0 (Herbicidal rate of 5% or less (almost no effect))
- herbicidal effect on rice flat sedge (E) (rice flat sedge): 5 (Herbicidal rate of 90% or more (almost completely withered))
- Herbicidal effect by soil treatment, I: wild oat (wild oat [3]): 0 (Herbicidal rate of 5% or less (almost no effect))
- Herbicidal effect by soil treatment, K: Italian ryegrass (Italian ryegrass [4]): 3 (Herbicidal rate of 40% or more and less than 70%)
- Herbicidal effect by soil treatment, M: velvetleaf (velvetleaf [5]): 2 (Herbicidal rate of 20% or more and less than 40%)
- Herbicidal effect by soil treatment, O: lambsquarters (lambsquarters [6]): 3 (Herbicidal rate of 40% or more and less than 70%)
- Herbicidal effect by soil treatment, R: persian speedwell (persian speedwell): 0 (Herbicidal rate of 5% or less (almost no effect))
- Herbicidal effect by foliage application, H: barnyard grass (barnyard grass; [11]): 0 (Herbicidal rate of 5% or less (almost no effect))
- Herbicidal effect by foliage application, I: wild oat (wild oat [7]; [11]): 0 (Herbicidal rate of 5% or less (almost no effect))
- Herbicidal effect by foliage application, K: Italian ryegrass (Italian ryegrass [8]; [11]): 4 (Herbicidal rate of 70% or more and less than 90%)
- Herbicidal effect by foliage application, L: windgrass (windgrass; [11]): 0 (Herbicidal rate of 5% or less (almost no effect))
- Herbicidal effect by foliage application, M: velvetleaf (velvetleaf [9]; [11]): 5 (Herbicidal rate of 90% or more (almost completely withered))
- Herbicidal effect by foliage application, O: lambsquarters (lambsquarters [10]; [11]): 4 (Herbicidal rate of 70% or more and less than 90%)
- Herbicidal effect by foliage application, P: chickweed (chickweed; [11]): 5 (Herbicidal rate of 90% or more (almost completely withered))

— patent US20230085307A1, “PYRIDAZINONE COMPOUND AND HERBICIDE” (NISSAN CHEMICAL CORPORATION, priority 2019, published 2023)
